Measured values reported in patent US12479866B2, “Boron-containing rho kinase inhibitors” (Percipiad, Inc., priority 2019, dated 2025).
Where “and” joins values, the source holds several entries; their conditions need not be identical. Equal values may be shown once. Read-outs that look alike come from different tables or passages of the source.

Experiments:
ROCK1 = ROCK1 (Homo sapiens (Human), UniProt Q13464); experiment: ROCK1 ADP-Glo kinase enzyme inhibition assay; type: biochemical
Experimental: (§1) We measured ROCK and PKA kinase enzyme activity inhibition by compounds using commercially available ROCK1 (Promega Corporation, cat #V9581), ROCK2 (Promega, cat #V4045), and PKA kinase (Promega, cat #V4247) ADP-Glo™ assay kits. ADP-Glo™ Kinase Assay is a luminescent ADP detection assay that provides a homogeneous method to measure kinase activity by quantifying the amount of ADP produced during a kinase reaction. The assay is performed in two steps. First, after the kinase reaction, an equal volume of ADP-Glo™ Reagent is added to terminate the kinase reaction and deplete the remaining ATP. Second, the Kinase Detection Reagent is added to simultaneously convert ADP to ATP and allow the newly synthesized ATP to be measured using a luciferase/luciferin reaction. The light generated is measured using a luminometer. A complete protocol is included with the kits and is also available at the Promega website. The assay is briefly described below. • 1. Diluted enzyme, substrate, ATP, and compounds (inhibitors) in Kinase Buffer (40 mM Tris, 7.5, 20 mM MgCl2, 0.1 mg/ml BSA, 50 μM DTT). • 2. Added 1 μl of inhibitor, 2 μl of enzyme and 2 μl of substrate/ATP mix to the wells of 384-well low volume nonbinding assay plate A series of three-fold dilution of inhibitor was prepared and assayed for each inhibitor. • 3. Incubated at room temperature for 60 minutes. • 4. Added 5 μl of ADP-Glo™ Reagent. • 5. Incubated at room temperature for 60 minutes. • 6. Added 10 μl of Kinase Detection Reagent • 7. Incubated at room temperature for 30 minutes.
(§2) Recorded luminescence (Integration time 1 second) using a plate-based luminometer.
Calculated Percent Enzyme Activity: First subtract the signal of the negative control (no enzyme and no inhibitor) from each sample's signal. Then use the mean relative light units (RLU) values for the 0% kinase activity (neither inhibitor nor enzyme) and the 100% kinase activity (no compound) to calculate the other percent enzyme activities remaining in the presence of the different dilutions of inhibitor. […]

ROCK2 = ROCK2 (Homo sapiens (Human), UniProt O75116); experiment: ROCK2 ADP-Glo kinase enzyme inhibition assay; type: biochemical
Chain of ROCK2 (O75116 whole entry): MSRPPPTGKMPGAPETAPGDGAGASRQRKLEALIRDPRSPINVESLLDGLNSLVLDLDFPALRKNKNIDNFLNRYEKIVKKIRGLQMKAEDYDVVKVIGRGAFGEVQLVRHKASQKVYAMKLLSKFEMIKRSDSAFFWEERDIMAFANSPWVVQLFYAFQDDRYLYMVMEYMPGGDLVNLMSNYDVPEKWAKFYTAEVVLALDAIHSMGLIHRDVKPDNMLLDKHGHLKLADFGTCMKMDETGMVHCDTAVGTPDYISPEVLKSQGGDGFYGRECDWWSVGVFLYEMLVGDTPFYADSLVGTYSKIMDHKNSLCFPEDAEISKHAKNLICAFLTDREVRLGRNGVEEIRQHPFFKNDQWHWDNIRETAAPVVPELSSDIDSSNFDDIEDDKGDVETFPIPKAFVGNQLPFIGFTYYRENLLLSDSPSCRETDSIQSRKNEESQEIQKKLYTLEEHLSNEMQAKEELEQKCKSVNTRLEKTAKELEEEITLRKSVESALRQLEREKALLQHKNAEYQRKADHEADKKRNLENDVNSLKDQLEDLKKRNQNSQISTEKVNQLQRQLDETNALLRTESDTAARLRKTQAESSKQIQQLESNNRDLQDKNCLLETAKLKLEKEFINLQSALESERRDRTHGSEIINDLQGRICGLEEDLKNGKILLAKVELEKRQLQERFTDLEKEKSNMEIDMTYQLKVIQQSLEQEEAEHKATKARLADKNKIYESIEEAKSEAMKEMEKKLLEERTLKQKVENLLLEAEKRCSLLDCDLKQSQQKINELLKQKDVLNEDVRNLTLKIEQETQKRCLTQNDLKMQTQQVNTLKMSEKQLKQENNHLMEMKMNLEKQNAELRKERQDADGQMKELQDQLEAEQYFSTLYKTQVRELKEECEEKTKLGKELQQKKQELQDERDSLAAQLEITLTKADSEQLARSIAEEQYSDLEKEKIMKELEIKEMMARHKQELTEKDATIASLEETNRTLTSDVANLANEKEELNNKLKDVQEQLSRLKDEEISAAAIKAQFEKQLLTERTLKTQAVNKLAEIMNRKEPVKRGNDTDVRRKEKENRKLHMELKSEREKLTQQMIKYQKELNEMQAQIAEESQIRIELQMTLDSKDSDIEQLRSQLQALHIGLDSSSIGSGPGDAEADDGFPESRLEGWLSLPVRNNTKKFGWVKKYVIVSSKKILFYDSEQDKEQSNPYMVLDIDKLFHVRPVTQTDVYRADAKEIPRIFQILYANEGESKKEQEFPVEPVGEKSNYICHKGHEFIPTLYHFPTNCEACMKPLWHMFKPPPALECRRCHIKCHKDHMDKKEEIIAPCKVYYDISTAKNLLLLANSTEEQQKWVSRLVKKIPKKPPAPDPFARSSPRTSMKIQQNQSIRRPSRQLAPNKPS
Experimental: as §1, §2
Calculated Percent Enzyme Activity: First subtract the signal of the negative control (no enzyme and no inhibitor) from each sample's signal. Then use the mean relative light units (RLU) values for the 0% kinase activity (neither inhibitor nor enzyme) and the 100% kinase activity (no compound) to calculate the other percent enzyme activities remaining in the presence of the different dilutions of inhibitor.
Inhibitor stock solutions of 10 mM are made in DMSO and stored at −20° C. Dilutions were made in assay buffer immediately before use.

PKA = PKA (Homo sapiens (Human), UniProt P17612); experiment: PKA ADP-Glo kinase enzyme inhibition assay; type: biochemical; details: read-out: PKAIC50
Experimental: as §1, with “Added 1 μl of inhibitor, 2 μl of enzyme and 2 μl of substrate/ATP mix to the wells of 384-well low volume nonbinding assay plate A series of three-fold dilution of inhibitor was prepared and assayed for each inhibitor. • 3. Incubated at room temperature for 60 minutes. • 4. Added 5 μl of ADP-Glo™ Reagent. • 5. Incubated at room temperature for 60 minutes. • 6. Added 10 μl of Kinase Detection Reagent • 7. Incubated at room temperature for 30 minutes.” left out
as §2
Calculated Percent Enzyme Activity: First subtract the signal of the negative control (no enzyme and no inhibitor) from each sample's signal. […]

Caco-2 cells = experiment: Caco-2 Permeability; type: in vitro ADME; details: Caco-2
Experimental: (§3) Caco-2 Permeability. Experiment was conducted by Absorption Systems. Caco-2 cells (clone C2BBe1) were obtained from American Type Culture Collection (Manassas, VA). Cell monolayers were grown to confluence on collagen-coated, microporous membranes in 12-well assay plates. The permeability assay buffer was Hanks' balanced salt solution containing 10 mM HEPES and 15 mM glucose at a pH of 7.4. The buffer in the receiver chamber also contained 1% bovine serum albumin. The dosing solution concentration was 5 μM of test article in the assay buffer. Cell monolayers were dosed on the apical side (A-to-B) or basolateral side (B-to-A) and incubated at 37° C. with 5% CO2 in a humidified incubator. Samples were taken from the donor and receiver chambers at 120 minutes. Each determination was performed in duplicate. The flux of lucifer yellow was also measured post-experimentally for each monolayer to ensure no damage was inflicted to the cell monolayers during the flux period. […] Permeability calculations were performed as per Absorption Systems protocol, Table 23.

Caco-2 Permeability = type: in vitro ADME; details: human
Experimental: as §3

MDR1 = experiment: MDR1-MDCK Permeability; type: in vitro ADME; details: dog
Experimental: as §3, with “MDR1-MDCK” for “Caco-2”, “MDR1-MDCK cell” for “Caco-2 cells (clone C2BBe1) were obtained from American Type Culture Collection (Manassas, VA). Cell”, “post experimentally” for “post-experimentally”, “24.” for “23.”

[1] = system: MDR1-MDCK cell monolayers; experiment: MDR1-MDCK Permeability; type: in vitro ADME; details: MDR1-MDCK
Experimental: as §3, with “MDR1-MDCK” for “Caco-2”, “MDR1-MDCK cell” for “Caco-2 cells (clone C2BBe1) were obtained from American Type Culture Collection (Manassas, VA). Cell”, “post experimentally” for “post-experimentally”, “24.” for “23.”

primary hTM cells [2] = experiment: RealTime-Glo MT cell viability assay in hTM cells; type: cell-based; details: for Cell viability compared to DMSO controls: 30 uM and 10 μm; for Cell viability: 3.33 μm
Excerpt: (§4) Commercially available RealTime-Glo™ MT cell viability (Promega, catalog #G9712) and CellTox™ Green cytotoxicity (Promega, catalog #G8731) assays were used in assessing effect of compounds on primary hTM cell viability and cytotoxicity. The RealTime-Glo™ MT cell viability assay is a nonlytic, homogeneous, bioluminescent method that determines the number of viable cells in culture by measuring the reducing potential of cells and thus metabolism (MT). Viable cells reduce the proprietary pro-substrate to generate a substrate for NanoLuc® luciferase. This substrate diffuses from cells into the surrounding culture medium, where it is rapidly used by the NanoLuc® Enzyme to produce a luminescent signal. In a contrasting and complementary manner, CellTox™ Green cytotoxicity assay measures changes in membrane integrity that occur as a result of cell death. This assay system uses a proprietary asymmetric cyanine dye that is excluded from viable cells but preferentially stains the dead cells' DNA. The fluorescent signal produced by the dye binding to the dead-cell DNA is proportional to cytotoxicity.
Human™ cells were cultured and maintained as described in Example 12. Fifty μl cells (600 cells) in culture media containing compound, 25 μl media with RealTime-Glo™ MT cell viability assay reagent and 25 μl media with CellTox™ Green cytotoxicity assay reagent were plated in black, clear bottom 96-well plates. Light emitted by luciferase and fluorescence emitted by dye binding to DNA (excitation 485 nm and emission 525 nm) were measured at 24 h, 48 h, and 72 h after incubation using plate based luminescence and fluorescence plate readers.

Solubility in saline = type: physicochemical
HEK293 cells = experiment: CellTiter-Glo Luminescent Cell Viability Assay; details: HEK293 cells, two days
Experimental: We used CellTiter-Glo® Luminescent Cell Viability Assay (Promega, cat #G7573) to determine the number of viable cells in culture based on quantitation of the ATP present, which signals the presence of metabolically active cells. • 1. Prepared HEK293 suspension culture cells (ThermoFisher, cat #A14635) and added 50 μl cells in media (12,500 cells) to each well of a white, opaque-walled 96-well plate in triplicate. • 2. […] Incubated at 37° C. and 5% CO2 for two days. • 4. Added 100 μl of CellTiter-Glo® Reagent to each well and mix contents for 2 minutes on an orbital shaker to induce cell lysis. • 5. Recorded luminescence using a plate luminometer.

Phospho-MYPT1 Thr853 = experiment: Inhibition of MYPT1 phosphorylation in human trabecular meshwork (hTM) cells, western blot
Experimental: The outflow of aqueous humor across the trabecular meshwork (TM) is regulated by, among other factors, actomyosin contraction of the TM cells and altered extracellular matrix. ROCK is known to inhibit the phosphatase activity of myosin light chain phosphatase (MLCP) by phosphorylating MYPT1 at amino acids Thr696 and Thr853. […] Media with inhibitors was suctioned off, wells washed 2 times with cold PBS pH 7.4 buffer, and attached cells were scrapped off with 500 μl (T75 flasks) or 100 μl (6-well plates) SDS-PAGE sample buffer, and collected into 1.5 ml microcentrifuge tubes. • 5.
Two days before compound addition 6-well plates were seeded at a density of 75,000 cells/well. On the day of compound addition media was replaced with 3 ml fresh media containing compounds at different concentration. Fifteen hours after compound addition cells in each well were lysed with 0.2 ml extraction buffer (SDS-PAGE sample buffer containing […] and protease inhibitors) and extracts were collected.
Compounds (10 μM) were added to hTM cells cultured in 60 mm plates and cell extracts collected after […]. Cells were lysed with 0.2 ml lysis buffer and 20 μl extract was loaded in each lane (FIG. 7).

primary hTM cells [3] = experiment: CellTox Green cytotoxicity assay in hTM cells; type: cell-based; details: 24 h, 48 h, 72 h
Excerpt: as §4, with “The fluorescent signal produced by the dye binding to the dead-cell DNA is proportional to cytotoxicity.” left out
Human™ cells were cultured and maintained as described in Example 12. […] Light emitted by luciferase and fluorescence emitted by dye binding to DNA (excitation 485 nm and emission 525 nm) were measured at 24 h, 48 h, and 72 h after incubation using plate based luminescence and fluorescence plate readers.

hTM cells = experiment: hTM cell morphology changes (microscopy); details: for hTM cell morphology: 20 hours
[4] = system: New Zealand White rabbits; details: 0.1 ml of 5 mg/ml
Excerpt: The right eye that was not treated served as the control. […] The eyes of initial and confirmatory test animals were examined with slit lamp for ocular lesions. […] The animals were also observed for clinical signs of toxicity, morbidity and mortality.

Chain of ROCK1 (Q13464 whole entry): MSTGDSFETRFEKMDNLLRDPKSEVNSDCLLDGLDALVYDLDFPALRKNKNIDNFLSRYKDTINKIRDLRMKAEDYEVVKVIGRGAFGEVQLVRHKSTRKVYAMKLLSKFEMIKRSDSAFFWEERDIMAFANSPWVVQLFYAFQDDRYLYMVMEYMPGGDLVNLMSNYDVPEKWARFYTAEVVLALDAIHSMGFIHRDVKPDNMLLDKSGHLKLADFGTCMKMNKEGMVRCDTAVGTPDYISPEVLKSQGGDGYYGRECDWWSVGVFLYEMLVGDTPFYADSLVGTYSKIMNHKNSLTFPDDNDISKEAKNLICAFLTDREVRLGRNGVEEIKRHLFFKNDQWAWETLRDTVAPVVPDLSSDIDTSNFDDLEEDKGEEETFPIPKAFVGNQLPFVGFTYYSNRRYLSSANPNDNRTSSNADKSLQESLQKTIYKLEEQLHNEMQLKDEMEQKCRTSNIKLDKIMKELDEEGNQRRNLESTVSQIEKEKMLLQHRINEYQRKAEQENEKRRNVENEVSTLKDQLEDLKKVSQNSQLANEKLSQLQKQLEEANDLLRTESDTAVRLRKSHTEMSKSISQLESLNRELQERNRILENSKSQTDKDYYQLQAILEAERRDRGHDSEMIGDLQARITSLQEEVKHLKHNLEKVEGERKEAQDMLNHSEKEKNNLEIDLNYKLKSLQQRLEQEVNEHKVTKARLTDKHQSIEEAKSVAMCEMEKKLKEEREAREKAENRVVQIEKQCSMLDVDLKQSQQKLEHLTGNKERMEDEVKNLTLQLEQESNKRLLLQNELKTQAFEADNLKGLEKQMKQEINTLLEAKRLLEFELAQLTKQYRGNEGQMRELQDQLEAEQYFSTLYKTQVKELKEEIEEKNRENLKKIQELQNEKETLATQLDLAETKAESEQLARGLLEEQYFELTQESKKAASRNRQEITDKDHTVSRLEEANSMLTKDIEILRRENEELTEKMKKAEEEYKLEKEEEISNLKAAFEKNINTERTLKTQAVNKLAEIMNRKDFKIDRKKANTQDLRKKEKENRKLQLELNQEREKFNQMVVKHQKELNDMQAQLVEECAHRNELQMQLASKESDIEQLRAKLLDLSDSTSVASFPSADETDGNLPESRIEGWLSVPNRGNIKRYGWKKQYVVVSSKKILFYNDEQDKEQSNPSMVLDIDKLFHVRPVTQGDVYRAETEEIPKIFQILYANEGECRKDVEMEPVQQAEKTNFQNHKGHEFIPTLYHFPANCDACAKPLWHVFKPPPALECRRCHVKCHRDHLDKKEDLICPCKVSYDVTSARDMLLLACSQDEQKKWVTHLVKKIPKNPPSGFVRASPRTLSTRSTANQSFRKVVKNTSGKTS

Cl.Cl.NCC(C(=O)Nc1ccc2cnccc2c1)c1ccc(B(O)O)cc1 (centres unmarked) [Compound 10]
IC50 (ROCK1; average of two lots of compound 10 and compound 10.2HCl, read-out: average IC50 estimate against ROCK1): 84 nM | IC50 (ROCK1; read-out: ROCK1 IC50): 137 nM and 62 nM | IC50 (ROCK2; Exp #1, read-out: ROCK2 IC50(Exp #1)): 27 nM | IC50 (ROCK2; Exp #2, read-out: ROCK2 IC50(Exp #2)): 26 nM | IC50 (ROCK2; Exp #3, read-out: ROCK2 IC50(Exp #3)): 26 nM and 15 nM | IC50 (ROCK2; average of two lots of compound 10 and compound 10.2HCl, read-out: average IC50 estimate against ROCK2): 25 nM | IC50 (PKA): 52 nM | Absorption Potential Classification (Caco-2 cells): low (Papp(A to B) < 1 × 10^−6 cm/s: low) | Significant Efflux (Caco-2 cells): No | efflux ratio at 120 min, 5 μM (Caco-2 Permeability; Caco-2, pH 7.4): 2.58 | recovery at 120 min, 5 μM (Caco-2 Permeability; Caco-2, pH 7.4, A to B): 108% | Papp at 120 min, 5 μM (Caco-2 Permeability; Caco-2, pH 7.4, A to B, read-out: Papp Avg): 0.192 ×10⁻⁶ cm/s | Papp at 120 min, 5 μM (Caco-2 Permeability; Caco-2, pH 7.4, A to B, read-out: Papp R1): 0.209 ×10⁻⁶ cm/s | Papp at 120 min, 5 μM (Caco-2 Permeability; Caco-2, pH 7.4, A to B, read-out: Papp R2): 0.176 ×10⁻⁶ cm/s | recovery at 120 min, 5 μM (Caco-2 Permeability; Caco-2, pH 7.4, B to A): 103% | Papp at 120 min, 5 μM (Caco-2 Permeability; Caco-2, pH 7.4, B to A, read-out: Papp Avg): 0.496 ×10⁻⁶ cm/s | Papp at 120 min, 5 μM (Caco-2 Permeability; Caco-2, pH 7.4, B to A, read-out: Papp R1): 0.565 ×10⁻⁶ cm/s | Papp at 120 min, 5 μM (Caco-2 Permeability; Caco-2, pH 7.4, B to A, read-out: Papp R2): 0.426 ×10⁻⁶ cm/s | recovery at 120 min, 5 μM (MDR1; MDCK-MDR1, pH 7.4, A to B): 95.5% | Papp at 120 min, 5 μM (MDR1; MDCK-MDR1, pH 7.4, A to B, read-out: Papp Avg): < 0.0566 ×10⁻⁶ cm/s | Papp at 120 min, 5 μM (MDR1; MDCK-MDR1, pH 7.4, A to B, read-out: Papp R1): < 0.0566 ×10⁻⁶ cm/s | Papp at 120 min, 5 μM (MDR1; MDCK-MDR1, pH 7.4, A to B, read-out: Papp R2): < 0.0566 ×10⁻⁶ cm/s | recovery at 120 min, 5 μM (MDR1; MDCK-MDR1, pH 7.4, B to A): 91.1% | Papp at 120 min, 5 μM (MDR1; MDCK-MDR1, pH 7.4, B to A, read-out: Papp Avg): < 0.0772 ×10⁻⁶ cm/s | Papp at 120 min, 5 μM (MDR1; MDCK-MDR1, pH 7.4, B to A, read-out: Papp R2): < 0.0772 ×10⁻⁶ cm/s | Brain Penetration Classification [1]: low

Cc1ccc(C(=O)OCc2ccc([C@@H](CN)C(=O)Nc3ccc4cnccc4c3)cc2)c(C)c1.Cl.Cl [Netarsudil.2HCl]
reduction in viability (primary hTM cells [2]; 1.11 μM): 10% | Cell viability compared to DMSO controls (primary hTM cells [2]; within 24 h): < 2% | Cell viability compared to DMSO controls (primary hTM cells [2]; within 48 h): < 0.1% | Cell viability (primary hTM cells [2]; 24 h): 53% | Cell viability (primary hTM cells [2]; 48 h): 15% | Cell viability (primary hTM cells [2]; 72 h): 9% | solubility in saline (Solubility in saline): ≤ 5000 µg/mL | reduction in ATP levels (HEK293 cells; 2.5 μM): 80% | reduction in ATP levels (HEK293 cells; 25 μM): 96% | Inhibition of MYPT1 Thr853 phosphorylation (western blot) (Phospho-MYPT1 Thr853; 2.5 μM inhibitors): inhibited phosphorylation of MYPT1 | Inhibition of MYPT1 Thr853 phosphorylation (western blot) (Phospho-MYPT1 Thr853; 10 μM inhibitors, 7 hours): completely inhibited MYPT1 phosphorylation | Amount of protein in lane (toxicity) (Phospho-MYPT1 Thr853; 10 μM, fifteen hours): much lower amount of protein because of toxicity | Cytotoxicity / membrane integrity (in words) (primary hTM cells [3]): concentration dependent | hTM cell morphology (hTM cells; 10 μM): became small and round | hTM cell morphology (hTM cells; […] and 3.3 μM): started contracting and detaching from plate | cellular morphological changes (hTM cells; hTM cells, 30, 10, 3.33, or 1.11 μM, 24 hours): affected cell morphology starting at 1.11 μM showing cell contraction and becoming round and small at 10 μM | eye irritation classification [4]: irritating | mean score Iris [4]: 2.0 | mean score conjunctival oedema (chemosis) [4]: 4.0 | mean score conjunctival redness [4]: 3.0 | mean score corneal opacity [4]: 3.0
